According to ChEMBL document CHEMBL1158259, “Tonkinecin, a novel bioactive annonaceous acetogenin from Uvaria tonkinesis” (J Nat Prod, 1996):

Legend:
Format in all cases: functional, cell-based
HL-60 = assay: Cytotoxicity against human HL60 cells after 5 days by MTT assay; conditions: HL-60, 120 h
[1] = Cytotoxicity against human BGC cells after 5 days by MTT assay; conditions: 120 h
HCT-8 = assay: Cytotoxicity against human HCT8 cells after 5 days by MTT assay; conditions: HCT-8, 120 h
Bel-7402 = assay: Cytotoxicity against human Bel7402 cells after 5 days by MTT assay; conditions: Bel-7402, 120 h

Structure (SMILES)	IC50 (HL-60)	IC50 [1]	IC50 (HCT-8)	IC50 (Bel-7402)
COc1cc([C@@H]2c3cc4c(cc3[C@@H](O[C@@H]3O[C@@H]5CO[C@@H](C)O[C@H]5[C@H](O)[C@H]3O)[C@H]3COC(=O)[C@H]23)OCO4)cc(OC)c1O [ETOPOSIDE]	160 nM	6.7 µM	6.4 µM	1900 nM
CCCCCCCCCCCC[C@@H](O)[C@H]1CC[C@H]([C@H](O)CCCCCCCCCCC[C@H](O)CCC2=C[C@H](C)OC2=O)O1 [TONKINECIN]	520 nM	5.1 µM	0.38 µM	1500 nM
